Assay results taken from patent US20030199699A1, “3-(4,5-Dihydroisoxaxol-5-yl)benzoylcyclohexenones and the use thereof as herbicides” (priority 2000, published 2003).

How the values were obtained:
[1] = tested on: hairy fingergrass; assay: greenhouse herbicidal test, pre-emergence; format: in vivo, Digitaria sanguinalis; details: 125 or 62.5 g/ha
Excerpt: (§1) The culture containers used were plastic flower pots containing loamy sand with approximately 3.0% of humus as substrate. The seeds of the test plant were sown separately for each species.
(§2) For the pre-emergence treatment, the active ingredients, which were suspended or emulsified in water, were applied directly after sowing by means of finely distributing nozzles. The containers were irrigated gently to promote germination and growth and subsequently covered with transparent plastic hoods until the plants had rooted. This cover caused uniform germination of the test plants unless this was adversely affected by the active ingredients.
(§3) Depending on the species, the plants were kept at temperatures of from 10 to 25° C. or from 20 to 35° C. The test period extended over 2 to 4 weeks. During this time, the plants were tended, and their response to the individual treatments was evaluated.
(§4) Evaluation was carried out using a scale of from 0 to 100. 100 means no emergence of the plants, or complete destruction of at least the aerial parts, and 0 means no damage or normal course of growth.
(§5) The plants used in the greenhouse experiments belonged to the following species: […]

[2] = tested on: redroot pigweed; assay: greenhouse herbicidal test, pre-emergence; format: in vivo, Amaranthus retroflexus; details: 125 or 62.5 g/ha
Excerpt: as §1, §2, §3, §4, §5

[3] = tested on: black nightshade; assay: greenhouse herbicidal test, pre-emergence; format: in vivo, Solanum nigrum; details: 125 or 62.5 g/ha
Excerpt: as §1, §2, §3, §4, §5

[4] = tested on: lambsquarters; assay: greenhouse herbicidal test, pre-emergence; format: in vivo, Chenopodium album; details: 125 or 62.5 g/ha
Excerpt: as §1, §2, §3, §4, §5

Structure (SMILES): CC1=NOC(c2c(S(C)(=O)=O)ccc(C(=O)C3=C(O)CCCC3=O)c2C)C1 (centres unmarked) [Compound 2.5, 2-[2-Methyl-3-(3-methyl-4,5-dihydroisoxazol-5-yl)-4-methylsulfonylbenzoyl]-1-hydroxycyclohex-1-en-3-one]
- herbicidal action against hairy fingergrass [1]: highly efficiently
- herbicidal action against redroot pigweed [2]: highly efficiently
- melting point: 135 to 140 °C
- herbicidal action against black nightshade [3]: highly efficiently
- herbicidal action against lambsquarters [4]: highly efficiently
